One compound from patent publication US20220202835A1, “INJECTABLE CLORSULON COMPOSITIONS, METHODS AND USES THEREOF” (Boehringer Ingelheim Animal Health USA Inc., priority 2019, published 2022) can be followed below.

Data set [1] can be described thus: Study 2: clorsulon plasma pharmacokinetics in cattle (LC-MS). It counts as in vivo. Conditions: for Maximum plasma concentrations: cattle. On the procedure:
Whole blood samples for analysis of plasma for analysis of clorsulon were collected from the jugular vein. Samples were collected in ˜7.5 mL lithium heparinized tubes for plasma preparation once prior to treatment on Day-2±1. Thereafter, blood samples were collected according to the Schedule of Operations (Table 3). The time of blood sampling was recorded, and care was taken to avoid cross-contamination of samples during sample collection, storage, and processing. Plasma was recovered from each sample, aliquoted (two aliquots) and stored frozen (at or below −20° C.) until required for assays. The cryo-tubes were labeled with Study Number, type of sample, date, Study Day/time of sampling, and animal ID.
One aliquot with plasma was used for analysis for clorsulon concentrations using currently High Performance Liquid Chromatography-Mass Spectrometry (LC-MS) methodology.
Plasma samples were assayed for clorsulon.
If quantifiable plasma concentrations were determined for an animal, pharmacokinetic analysis was performed as described below. Clorsulon plasma concentrations were determined for an animal at each sampling time, when appropriate. […] The mean concentration-time profiles will be obtained by averaging the concentrations at each sampling time point for all treated animals.
The therapeutic efficacy and pharmacokinetic parameters of clorsulon were evaluated when administered subcutaneously as 30% (w/v) clorsulon formulation to cattle experimentally infected with liver flukes (Fasciola hepatica). This study differs from Study Number 1 in that there is no administration of 10% (w/v) clorsulon and only immature (four week old) F. hepatica flukes were used.

The subject of data set [2] is Fasciola hepatica. Briefly: Study 2: efficacy against four week old Fasciola hepatica in cattle.
Data set [3] relates to Fasciola hepatica. As to the kind of experiment: Study 1: efficacy against induced Fasciola hepatica infection in cattle (fluke counts at necropsy). The conditions noted are these: subcutaneously to cattle at 6 and 8 mg/kg bodyweight as a 30% w/v solution.

Turning to `Nc1cc(C(Cl)=C(Cl)Cl)c(S(N)(=O)=O)cc1S(N)(=O)=O` [clorsulon, 4-amino-6-(1,2,2-trichloroethenyl)benzene-1,3-disulfonamide], the Maximum plasma concentrations in data set [1] (Group 2: 30% w/v solution, 8 mg clorsulon/kg SC) amounted to 5740 ± 1160 ng/mL; in data set [1] (Group 3: 30% w/v solution, 6 mg clorsulon/kg SC), 4430 ± 988 ng/mL; in data set [1] (Group 4: 30% w/v solution, 4 mg clorsulon/kg SC) it was 3140 ± 530 ng/mL. The “time at which maximum plasma concentrations were reached” value in data set [1] (Groups 2-4 (4, 6, 8 mg/kg SC), 12 out of 18 animals) is at most 12 h. The “Eff (%) against Fasciola hepatica” value in data set [2] (Group 2: 30% w/v solution, 8 mg/kg subcutaneously once on Day 0 (4 week old flukes)) turned out to be 99.6%; in data set [2] (Group 3: 30% w/v solution, 6 mg/kg subcutaneously once on Day 0 (4 week old flukes)) it was 99.9%; in data set [2] (Group 4: 30% w/v solution, 4 mg/kg subcutaneously once on Day 0 (4 week old flukes)) it was 92.9%. The “efficacy against early immature (four and six week old) F. hepatica” value in data set [3] is on record as 98-100%.
